# In PubChem BioAssay (NCI):
#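 Five concentrations, 48 hours, 96-well plates. GI50 is the concentration that inhibits growth by half. Definition used: TGI = concentration required for complete inhibition of growth.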
# How the values were obtained:
# Test in all cases: NCI tumour cell line growth inhibition, 48 h
# [1] = system: NCI-H226 lung
# [2] = system: NCI-H23 lung
# [3] = system: NCI-H460 lung
# [4] = system: NCI-H522 lung
# [5] = system: NCI/ADR-RES ovarian
# [6] = system: OVCAR-3 ovarian
# [7] = system: OVCAR-4 ovarian
# [8] = system: OVCAR-5 ovarian
# [9] = system: OVCAR-8 ovarian
# [10] = system: PC-3 prostate
# [11] = system: RPMI-8226 leukemia
# [12] = system: RXF 393 renal
# [13] = system: SF-268 CNS
# [14] = system: SF-295 CNS
# [15] = system: SF-539 CNS
# [16] = system: SK-MEL-2 melanoma
# [17] = system: SK-MEL-28 melanoma
# [18] = system: SK-MEL-5 melanoma
# [19] = system: SK-OV-3 ovarian
# [20] = system: SN12C renal
# [21] = system: SNB-19 CNS
# [22] = system: SNB-75 CNS
# [23] = system: SR leukemia
# [24] = system: SW-620 colon
# [25] = system: T-47D breast
# [26] = system: TK-10 renal
# [27] = system: U251 CNS
# [28] = system: UACC-257 melanoma
# [29] = system: UACC-62 melanoma
# [30] = system: UO-31 renal
structure (smiles),measurement,setting,value
Nc1nc(Nc2ccc(Cl)cc2)n(Cc2cccc(Br)c2)n1,TGI,[1],> 100 µM
same,GI50,[2],29 µM
same,TGI,[2],> 100 µM
same,GI50,[3],23.7 µM
same,TGI,[3],57.5 µM
same,GI50,[4],18.7 µM
same,TGI,[4],44.5 µM
same,GI50,[5],20.2 µM
same,TGI,[5],51.5 µM
same,GI50,[6],33.8 µM
same,TGI,[6],> 100 µM
same,GI50,[7],34 µM
same,TGI,[7],> 100 µM
same,GI50,[8],22.3 µM
same,TGI,[8],73.5 µM
same,GI50,[9],35.7 µM
same,TGI,[9],> 100 µM
same,GI50,[10],29.8 µM
same,TGI,[10],> 100 µM
same,GI50,[11],31.6 µM
same,TGI,[11],> 100 µM
same,GI50,[12],17 µM
same,TGI,[12],60.5 µM
same,GI50,[13],27.9 µM
same,TGI,[13],> 100 µM
same,GI50,[14],22.6 µM
same,TGI,[14],74.9 µM
same,GI50,[15],22.2 µM
same,TGI,[15],62.1 µM
same,GI50,[16],18.9 µM
same,TGI,[16],38.1 µM
same,GI50,[17],26 µM
same,TGI,[17],> 100 µM
same,GI50,[18],17.4 µM
same,TGI,[18],33.5 µM
same,GI50,[19],34.5 µM
same,TGI,[19],> 100 µM
same,GI50,[20],26.2 µM
same,TGI,[20],> 100 µM
same,GI50,[21],30.7 µM
same,TGI,[21],> 100 µM
same,GI50,[22],15.5 µM
same,TGI,[22],60.6 µM
same,GI50,[23],57.6 µM
same,TGI,[23],> 100 µM
same,GI50,[24],32.8 µM
same,TGI,[24],> 100 µM
same,GI50,[25],30.5 µM
same,TGI,[25],> 100 µM
same,GI50,[26],40 µM
same,TGI,[26],> 100 µM
same,GI50,[27],31.3 µM
same,TGI,[27],> 100 µM
same,GI50,[28],33.6 µM
same,TGI,[28],> 100 µM
same,GI50,[29],18.3 µM
same,TGI,[29],61.1 µM
same,GI50,[30],21 µM
same,TGI,[30],90.4 µM
